Source: patent publication US20250381242A1 (INVAIO SCIENCES, INC., priority 2024, published 2025)
Residues, ends and D or L forms follow the SMILES beside them. No end group written: not given here.

Experiments:
A. tumefaciens = details: 24 h, 10 μM
E. amylovora = details: 24 h, 10 μM
L. crescens = details: 10 μM
X. citri = experiment: Bacterial growth inhibition by OD600 absorbance, X. citri; assay type: cell-based, X. citri subsp. citri (ATCC 49118); details: peptide 10 μM, 24 hours at 30° C., OD 600 nm
Method: (§1) Antimicrobial activity of antimicrobial peptides was tested against the agricultural microbial pests A. tumefaciens, E. amylovora, E. coli, and X. citri, using OD absorbance measurement to detect bacterial growth.
(§2) Antimicrobial peptides were synthesized using solid phase peptide synthesis method and resuspended in 10% DMSO to a 1 mM stock concentration. The stock solution was aliquoted in cryovials and stored at −80° C.
(§3) An aliquot of 198 μl of the bacterial culture was added to each well in a 96-well plate and 2 μl of a 1 mM peptide stock solution was added to each well, for a final treatment concentration of 10 μM of a given peptide. Media only wells were included to control for contamination. The positive controls were 50 μg/ml oxytetracycline hydrochloride and 500 μg/ml streptomycin sulfate. A 0.1% DMSO treatment was included as a negative control.
(§4) An initial absorbance reading of the bacterial suspensions was taken at 600 nm. Then, the bacteria were grown in an incubator at 30° C. (A. tumefaciens, E. amylovora, X. citri) or 37° C. (E. coli) for 24 hours, after which the final absorbance reading was measured. Using the initial and final absorbance reading compared to negative and positive controls, the percent inhibition of the bacterial strain by given peptide treatment was determined.

E. coli = experiment: Bacterial growth inhibition by OD600 absorbance, E. coli; assay type: cell-based, E. coli (DH5-alpha); details: peptide 10 μM, 24 hours at 37° C., OD 600 nm
Method: as §1, §2, §3, §4

Compound	growth inhibition, A. tumefaciens (A. tumefaciens)	growth inhibition, E. amylovora (E. amylovora)	growth inhibition, L. crescens (L. crescens)	growth inhibition, X. citri (X. citri) [%]	growth inhibition, E. coli (E. coli) [%]
CSCC[C@H](NC(=O)CNC(=O)[C@H](C)NC(=O)[C@H](CCC(=O)O)NC(=O)[C@H](CCCCN)NC(=O)[C@H](C)NC(=O)[C@@H](NC(=O)CNC(=O)[C@H](CCCCN)NC(=O)[C@H](CC(C)C)NC(=O)[C@H](CC(C)C)NC(=O)[C@H](CC(=O)O)NC(=O)CNC(=O)[C@H](Cc1ccccc1)NC(=O)[C@H](C)NC(=O)CN)C(C)C)C(=O)N[C@@H](CCCCN)C(=O)N[C@@H](CC(C)C)C(=O)N[C@@H](CC(C)C)C(=O)N[C@@H](CC(N)=O)C(=O)N[C@@H](CCSC)C(=O)N[C@@H](C)C(=O)N[C@@H](CCC(N)=O)C(=O)N[C@@H](CS)C(=O)N[C@@H](CCCCN)C(=O)N[C@@H](CC(C)C)C(=O)N[C@@H](CO)C(=O)NCC(=O)N[C@@H](CCCCN)C(=O)N[C@@H](CS)C(=O)O [compound 19] (H-GAFGDLLKGVAKEAGMKLLNMAQCKLSGKC-OH; N-terminus and C-terminus assumed)	<90%	<90%	<90%		
AFWKKFFKKFFKSAKKFG [compound 67]	99.57%	100.00%	<90%	100.00	100.00
AIWKKIIKKIIKSAKKIG [compound 78]	100.00%	100.00%	<90%	100.00	<90
ALWKTLLKHVGKAAGKAALNAVTDMVNQ [compound 25]	100.00%	100.00%	<90%	100.00	100.00
AWKETIRKYLKNEIKKKWRKAVIAW [compound 14]	100.00%	100.00%	<90%	100.00	100.00
FFRNLWKGAKAAFRAGHAAWRA [compound 41]	100.00%	100.00%	<90%	100.00	<90
FKRLEKLFKKIWNWK [compound 79]	100.00%	100.00%	<90%	100.00	<90
FQRYFHRYARFLAKIWKG [compound 62]	100.00%	100.00%	<90%	100.00	<90
FRIRVRVKWKLFKKI [compound 81]	100.00%	100.00%	<90%	<90	100.00
GANALKKYFTILKKFFKLAW [compound 61]	<90%	<90%	<90%	<90	100.00
GFGTILKALAKIAGKVVKKLATKPGATYMLKENLK [compound 7]	100.00%	100.00%	<90%	100.00	100.00
GIGKFLHSAKKFGKAFVGEIMNSKKKKKKKKKK [compound 5]	98.68%	<90%	<90%	100.00	<90
GIGKLFLHAAKKFAKAFVAEKMNS [compound 36]	100.00%	100.00%	<90%	100.00	<90
GIKDLLKGAAKALVKTVLK [compound 87]	98.43%	<90%	<90%	<90	<90
GWWRRTVDKVRNAGRKVAGFASKACGALGH [SEQ ID NO: 13]	greater than 90%	greater than 90%	greater than 90%		
IWSFLIKAATKLLPSLFGGGKKDS [SEQ ID NO: 39]			greater than 90%		
KFWSLLKKALRLWANVL [SEQ ID NO: 76]	greater than 90%	greater than 90%	greater than 90%		
KKFLHSAKKWLKAFVKLFKNW [SEQ ID NO: 33]	greater than 90%		greater than 90%		
KWKSFIKNLEKVLKKGPILANLVSIV [SEQ ID NO: 23]	greater than 90%	greater than 90%	greater than 90%		
MQFITDLIKKAVDFIKGLFGNK [compound 43]	<90%	<90%		<90	94.72
NAGSLLSGWG [compound 144]	<90%	<90%		<90	<90
NKVKEWIKYLKSLFS [compound 96]	100.00%	100.00%		<90	<90
RLSRIVVIRVSR [compound 132]	<90%	<90%		<90	<90
SWLSKTAKKLENSAKKRISEGIAIAIQGGPR [compound 11]	99.35%	100.00%		100.00	100.00
VKLVYPLKVKLYP [compound 119]	<90%	<90%		<90	<90
VKLYPVKLYP [compound 143]	<90%	<90%		<90	<90
VRLRIRVRVIRK [compound 118]	100.00%	100.00%		100.00	100.00
VRVKVRVKVRVK [compound 131]	<90%	100.00%		<90	99.54
WKIKWKIKWKIK [compound 105]	<90%	<90%		<90	<90
YSLQMGATAIKQVKKLFKKKGG [compound 56]	<90%	<90%		<90	<90
